Data published in patent publication US6054459A, “Substituted 1,2,3,4-tetrahydro-5-nitro-pyrimidines” (priority 1994, dated 2000).
Where two headings read alike, the source gives them in different places.

Key:
Myzus persicae = experiment: Myzus test; format: in vivo, Myzus persicae (green peach aphid); conditions: 144 h, read-out: Degree of destruction in % after 6d
Protocol: (§1) Solvent: 7 parts by weight of dimethylformamide
(§2) Emulsifier: 1 part by weight of alkylaryl polyglycol ether
(§3) To produce a suitable preparation of active compound, 1 part by weight of active compound is mixed with the stated amount of solvent and the stated amount of emulsifier, and the concentrate is diluted with water to the desired concentration.
Cabbage leaves (Brassica oleracea) which are severely infested with the green peach aphid (Myzus persicae) are treated by being dipped into the preparation of active compound of the desired concentration.
After the desired period of time, the destruction in % is determined. 100% means that all the aphids have been killed; 0% means that none of the aphids have been killed.

[1] = tested on: Lucilia cuprina res. larvae; experiment: Test with resistant Lucilia cuprina larvae; format: in vivo; conditions: for mortality at 100 ppm: Lucilia cuprina, read-out: effectiveness (degree of destruction)
Protocol: Test with resistant Lucilia cuprina larvae
Emulsifier: 35 parts by weight of ethylene glycol monomethyl ether 35 parts by weight of nonylphenol polyglycol ether
To produce a suitable preparation of active compound, three parts by weight of active compound are mixed with seven parts by weight of the abovementioned mixture and the concentrate thus obtained is diluted with water to the particular desired concentration.
About 20 Lucilia cuprina res. larvae are introduced into a test tube which contains approx. 1 cm^3 of horse meat and 0.5 ml of the preparation of active compound. After 24 hours, the degree of destruction is determined.

Ctenocephalides felis = experiment: In-vitro flea test (all stages of development); format: in vivo; conditions: no adult fleas after 11/2 times the development time
Protocol: In-vitro flea test (all stages of development)
Test object: All stages (eggs, larvae, pupae and adults) of Ctenocephalides felis.
Test method: Bloodmeal is dried overnight in a shallow dish at approximately 70° C. and subsequently screened using a mesh size of 0.63 mm.
1.8 g portions of the bloodmeal which has been prepared in this manner are placed into plastic Petri dishes .o slashed. 9.8 cm.
Using an Eppendorf pipette, 0.2 ml of the substance are added to the 1.8 g portions of bloodmeal (dilution 1:10). This means that for a use concentration of 1 ppm, the aqueous solution must have a concentration of 10 ppm. The solution is applied dropwise and uniformly over the entire area covered by the bloodmeal.
The dishes which have been prepared in this manner are allowed to dry overnight. Using a suitable device, the substance, now in the form of dried lumps of bloodmeal, is broken up and distributed homogeneously in the Petri dish by swirling. To the test dishes which have been prepared in this manner there is now added a spatula--tipful of flea eggs which have been obtained by screening (and which are derived from experimentally infected cats). The dish is sealed using Parafilm and shaken vigorously.
The test materials are incubated at 25° C. and a relative humidity of 85%. At certain intervals, the dishes are examined for stages of development of the fleas.
Test criterion: The criterion for the in-vitro activity of a substance is defined as the inhibition of flea development, or a standstill during the development before reaching the adult stage.
Effective: No adult fleas found after 11/2 times the development time.
Ineffective: Adult fleas found after 11/2 times the development time.

Nephotettix cincticeps = experiment: Nephotettix test; format: in vivo, Nephotettix cincticeps (green rice leafhopper); conditions: 144 h, after 6d, read-out: Degree of destruction in % after 6d; for mortality at 1e-05 %: active compound concentration 0.00001 %; for mortality at 0.0001 %: active compound concentration 0.0001 %; for mortality at 0.001 %: active compound concentration 0.001 %
Protocol: as §1, §2, §3
Rice seedlings (Oryza sativa) are treated by being dipped into the preparation of active compound of the desired concentration and are infested with larvae of the green rice leafhopper (Nephotettix cincticeps) while the seedlings are still moist.
After the desired period of time, the destruction in % is determined. 100% means that all the leafhoppers have been killed; 0% means that none of the leafhoppers have been killed.

Aphis fabae = experiment: Critical concentration test/root-systemic action; format: in vivo; conditions: 48 h, 20 ppm in soil, infested after 7 days, evaluated after a further 2 days, read-out: Degree of destruction in % at active compound concentrations in ppm (root-systemic action)
Protocol: Critical concentration test/root-systemic action
Solvent: 4 parts by weight of acetone
as §2
To produce a suitable preparation of active compound, 1 part by weight of active compound is mixed with the stated amount of solvent, the stated amount of emulsifier is added and the concentrate is diluted with water to the desired concentration.
The preparation of active compound is intimately mixed with soil. The concentration of the active compound in the preparation is of practically no importance, only the amount by weight of active compound per unit volume of soil, which is given in ppm (=mg/1), being decisive. The treated soil is transferred into pots and these are planted with pregerminated broad beans. The active compound can in this way be taken up from the soil by the roots of the plants and be transported into the leaves.
After a further 2 days, the evaluation is made by counting or estimating the dead animals. The root-systemic action of the active compound is deduced from the mortality figures. It is 100% if all test animals have been killed and 0% if just as many test insects are still alive as in the case of the untreated control.

[2] = tested on: Musca domestics, strain WHO(N); experiment: Fly test; format: in vivo; conditions: 6 h, read-out: activity (flies destroyed)
Protocol: Test animals: Musca domestics, strain WHO(N)
Solvent: 35 parts by weight of ethylene glycol mono-methyl ether
35 parts by weight of nonylphenol polyglycol ether
To produce a suitable formulation, three parts by weight of active compound are mixed with seven parts of the abovementioned solvent-emulsifier mixture and the emulsion concentrate thus obtained is diluted with water to the particular desired concentration.
2 ml of this preparation of active compound are pipetted onto paper filter discs (.o slashed. 9.5 cm) located in Petri dishes of a suitable size. After the discs have dried, 25 test animals are transferred into the Petri dishes and covered.
After 6 hours, the activity of the preparation of active compound is determined. The activity is expressed in %. 100% means that all flies have been destroyed; 0% means that no flies have been destroyed.

[3] = active compound concentration 0.001 %, after 6d
[4] = active compound concentration 0.01 %, after 6d

Q: For `CC(C)(C)OC(=O)NCCN1CC([N+](=O)[O-])=C2N(Cc3ccc(Cl)nc3)CCN2C1` [drawing 138], which mortality at 0.001 % (Myzus persicae) is on record?
A: 100%

Q: And the mortality at 0.01 % (Myzus persicae)?
A: 100%

Q: For `O=[N+]([O-])C1=C2N(Cc3ccc(Cl)nc3)CCN2CN(CCCCCCO)C1` [II-14], which logP (physchem) is on record?
A: 0.74

Q: What does the source list for `O=C(NCCCCCCCl)OCCCN1CC([N+](=O)[O-])=C2N(Cc3ccc(Cl)nc3)CCN2C1` [drawing 143]?
A: mortality at 0.001 % (Myzus persicae; [3]): 100%; mortality at 0.01 % (Myzus persicae; [4]): 100%

Q: Which “activity compared with the prior art” value ([1]; 24 hours) does the source give for `O=C(NCCN1CC([N+](=O)[O-])=C2N(Cc3ccc(Cl)nc3)CCN2C1)OCc1ccccc1` [Example 18] here?
A: superior activity compared with the prior art

Q: What about the mortality at 100 ppm ([1]; 100 ppm, 24 hours) of the same molecule?
A: 100%

Q: What about the inhibition at 10 ppm (Ctenocephalides felis) of the same molecule?
A: 100%

Q: With `O=[N+]([O-])C1=C2N(Cc3ccc(Cl)nc3)CCCN2CN(CCOCC(F)(F)F)C1` [drawing 137, reference compound] as the molecule, how does the mortality at 0.001 % (Myzus persicae) read?
A: 0%

Q: And the mortality at 0.01 % (Myzus persicae)?
A: 80%

Q: For `CC(=O)NCCN1CC([N+](=O)[O-])=C2N(Cc3ccc(Cl)nc3)CCN2C1` [drawing 140], which mortality at 0.001 % (Myzus persicae) is on record?
A: 100%

Q: And the mortality at 0.01 % (Myzus persicae)?
A: 100%

Q: With `O=[N+]([O-])C1=C2N(Cc3ccc(Cl)nc3)CCN2CN(CCCCCO)C1` [II-13] as the molecule, how does the logP (physchem) read?
A: 0.97

Q: What does the source list for `CCOC(=O)NCCCN1CC([N+](=O)[O-])=C2N(Cc3ccc(Cl)nc3)CCN2C1` [drawing 141]?
A: mortality at 0.001 % (Myzus persicae): 99%; mortality at 0.01 % (Myzus persicae): 100%

Q: What does the source list for `CC(=O)OCCCN1CC([N+](=O)[O-])=C2N(Cc3ccc(Cl)nc3)CCN2C1` [drawing 136]?
A: mortality at 1e-05 % (Nephotettix cincticeps): 100%; mortality at 0.0001 % (Nephotettix cincticeps): 100%; mortality at 0.001 % (Nephotettix cincticeps): 100%

Q: With `CCOC(=O)NCCN1CC([N+](=O)[O-])=C2N(Cc3ccc(Cl)nc3)CCN2C1` [drawing 139] as the molecule, how does the mortality at 0.001 % (Myzus persicae) read?
A: 95%

Q: And the mortality at 0.01 % (Myzus persicae)?
A: 100%

Q: With `O=[N+]([O-])C1=C2N(Cc3cnc(Cl)s3)CCN2CN(CCCCO)C1` [II-17] as the molecule, how does the logP (physchem) read?
A: 0.58

Q: For `CC(C)NC(=O)OCCN1CC([N+](=O)[O-])=C2N(Cc3ccc(Cl)nc3)CCN2C1` [Example 14], which “activity compared with the prior art” value ([1]; 24 hours) is on record?
A: superior activity compared with the prior art

Q: What about the mortality at 100 ppm ([1]; 24 h) of the same molecule?
A: 100%

Q: For `CNC(=O)OCCCN1CC([N+](=O)[O-])=C2N(Cc3ccc(Cl)nc3)CCN2C1` [drawing 135], which mortality at 1e-05 % (Nephotettix cincticeps) is on record?
A: 100%

Q: What about the mortality at 0.0001 % (Nephotettix cincticeps) of the same molecule?
A: 100%

Q: And the mortality at 0.001 % (Nephotettix cincticeps)?
A: 100%

Q: With `O=[N+]([O-])C1=C2N(Cc3ccc(Cl)nc3)CCCN2CN(CCOCC(F)(F)F)C1` [drawing 134, reference compound] as the molecule, how does the mortality at 1e-05 % (Nephotettix cincticeps) read?
A: 0%

Q: What about the mortality at 0.0001 % (Nephotettix cincticeps) of the same molecule?
A: 60%

Q: What about the mortality at 0.001 % (Nephotettix cincticeps) of the same molecule?
A: 100%

Q: What does the source list for `CCOC(=O)NCCN1CC([N+](=O)[O-])=C2N(Cc3ccc(Cl)nc3)CCN2C1` [Example 3, 6,7-dihydro-6-(2-ethoxy-carbonylamino-ethyl)-8-nitro-(5H)-3-(2-chloropyridin-5-yl-methyl)-imidazolidino-[2,3-f] -pyrimidine]?
A: activity compared with the prior art ([1]; 24 hours): superior activity compared with the prior art; mortality at 100 ppm ([1]; 24 h): 100%; inhibition at 10 ppm (Ctenocephalides felis): 100%

Q: For `CCCCNC(=O)OCCCN1CC([N+](=O)[O-])=C2N(Cc3ccc(Cl)nc3)CCN2C1`, which mortality at 0.001 % (Myzus persicae; [3]) is on record?
A: 98%

Q: What about the mortality at 0.01 % (Myzus persicae; [4]) of the same molecule?
A: 100%

Q: Which mortality at 20 ppm (Aphis fabae) does the source give for `CC(C)(C)C(=O)NCCN1CC([N+](=O)[O-])=C2N(Cc3ccc(Cl)nc3)CCN2C1` here?
A: 100%

Q: What does the source list for `CC(C)(C)OC(=O)NCCN1CC([N+](=O)[O-])=C2N(Cc3ccc(Cl)nc3)CCN2C1` [Example 16]?
A: activity compared with the prior art ([1]; 24 hours): superior activity compared with the prior art; mortality at 100 ppm ([1]; 24 h): 100%; inhibition at 10 ppm (Ctenocephalides felis): 100%; mortality at 1000 ppm [2]: 100%
